Values quoted from earlier work as cited in patent US12377109B2, “Formulation and noncovalent stabilization of olivetolic acid derivatives” (MINGOWOOD PHARMACAL LLC, priority 2020, dated 2025).
Where two headings read alike, the source gives them in different places.

Tests used:
[1] = test system: MDA-MB-231 human breast cancer cells; conditions: MDA-MB-231 cells
[2] = test system: lithium chloride- and cisplatin-induced vomiting; conditions: mice and shrews
[3] = for first-order rate constant k for decarboxylation: 100° C.
[4] = 30° C., neat substances and solutions, reviewed studies
[5] = 40° C., neat substances and solutions, reviewed studies

Row | SMILES | effect on cell migration [1] | lowest dose suppressing vomiting [2] [mg/kg] | time to 10% degradation ([3]; 25° C., extrapolated from Wang's data) | half-life ([3]; 30° C., calculated from Citti et al.) [weeks] | half-life ([3]; 30° C., calculated from Wang et al.) [weeks] | half-life ([3]; 30° C., estimated for the Cerilliant product) | half-life [3, 4] | decrease in potency ([3]; 40° C. over 4 weeks, Cerilliant standard solution in acetonitrile) [%] | half-life ([3]; 40° C., from Wang et al. parameters) [weeks] | half-life [3, 5] | decay constant ([3]; 80° C., Wang et al.) [s⁻¹] | half-life ([3]; 80° C., Wang's estimate) [h] | half-life ([3]; 80° C., in hemp oil as extracted, Citti et al.) | first-order rate constant k for decarboxylation [3] | activation energy of degradation ([3]; Wang et al.) [kJ/mol] | prefactor in the expression for the degradation rate constant ([3]; Wang et al.) [s⁻¹] | activation energy of degradation ([3]; in hemp oil, Citti et al.) [kJ/mol] | prefactor ([3]; in hemp oil, Citti et al.) [L/s] | pKa | loss ([3]; 40% and 90% ethanol tinctures, 4° C., dark, 6 months, Peschel)
1 | C=C(C)C1CCC(C)=CC1c1c(O)cc(CCCCC)c(C(=O)O)c1O (stereo not drawn) [CBDA, 3-p-mentha-1,8-dien-3-yl-6-pentyl-beta-resorcylic acid] | inhibits migration | 0.01 | approximately 3.7 weeks | 4.5 | 11.6 | about 12 weeks | about 12 weeks | 69.8 | 4.06 | about 4 weeks | 5.35e-05 | 3.6 | approximately 4.9 hours | 4.13×10^−4 | 115 | 2e+12 | 89.5 | 6.9e+08 | 3.4 | 
2 | CCCCCc1cc(O)c(C/C=C(\C)CCC=C(C)C)c(O)c1C(=O)O [CBGA, 3-[(2E)-3,7-dimethylocta-2,6-dienyl]-2,4-dihydroxy-6-pentylbenzoic acid] |  |  |  |  |  |  |  |  |  |  |  |  |  |  |  |  |  |  | 2.9 | 
3 | CCCCCc1cc2c(c(O)c1C(=O)O)[C@@H]1C=C(C)CC[C@H]1C(C)(C)O2 [THCA, (6aR,10aR)-1-hydroxy-6,6,9-trimethyl-3-pentyl-6a,7,8,10a-tetrahydrobenzo[c]chromene-2-carboxylic acid] |  |  |  |  |  |  | about 12 weeks |  |  | about 4 weeks |  |  |  | 4.93×10^−4 |  |  |  |  |  | over 50%
